Source: article PMC8443589, “Modelling human liver fibrosis in the context of non-alcoholic steatohepatitis using a microphysiological system” (Communications Biology, 2021)

How the values were obtained:
[1] = test system: liver MPS NASH model (PHH, KC and HSC co-cultures, high fat); experiment: Secreted cytokine/biomarker profile (Luminex, ELISA) of liver MPS NASH model dosed with OCA or ELF; format: cell-based, human
Protocol: Fig. 3 Obeticholic acid and Elafibranor both modulate inflammatory and fibrosis phenotype in liver MPS NASH model and phenotype can additionally be reversed with dietary changes. PHH, KC and HSC co-cultures were cultured in the MPS platform under high fat conditions and dosed with varying concentrations of Obeticholic acid (OCA) and Elafibranor (ELF) QD or vehicle control (control) for 10 days, following an initial 4-day pre-culture phase. a The secreted cytokine profile from liver microtissues was compared by Luminex to determine the effects of each compound on the inflammatory profile of the liver with samples analysed at day 8 and 14 of the culture. Data were normalised by Z-transformation to allow comparison of all analytes and presented as a heatmap. b The expression of fibrosis-associated genes was analysed in total RNA from control, OCA and ELF treated liver microtissues (highest concentration for each compound) using Human Fibrosis RT2 Profiler PCR Arrays. Gene expression changes are expressed as a fold change over control. c Liver microtissues were stained for collagen-type I, α-SMA, nuclei (DAPI - blue), phalloidin (green) and imaged by confocal microscopy. Representative images are shown and scale bars 200 µm. d Staining of microtissue was quantified by measuring total fluorescence intensity throughout individual microtissues, each data point represents an average of all the microtissues imaged within an MPS scaffold (min 8, max 20 microtissues). e PHH, KC and HSC co-cultures were cultured in the MPS platform under high fat or lean conditions for 30 days. Cultures either remained in the same type of media throughout or were switched at day 15 from fat media to lean media (Fat -> Lean). Cell culture medium samples were analysed for the presence of IL-6, f MCP-1, g TIMP-1, which were measured by ELISA. h Microtissues were stained with Oil-Red O to determine fat loading during culture period, total stain was quantified by absorbance at 510 nm. All datapoints shown, either as box-whisker plots highlighting mean and min-max or with error bars highlighting means ± SD. All data from a minimum of three independent cultures; statistical comparisons made to control samples unless other comparison shown.
Soluble biomarkers in cell culture medium from the MPS were analysed by enzyme-linked immunosorbent assay (ELISA); IL-6 was measured by Human IL-6 DuoSet ELISA (R&D Systems); MCP-1 was measured by Human CCL2/MCP-1 DuoSet ELISA (R&D Systems); pro-collagen 1 was measured by Human Pro-Collagen I α1 DuoSet (R&D Systems); TIMP-1 was measured by Human TIMP-1 Quantikine ELISA Kit (R&D Systems); Fibronectin was measured by Human Fibronectin DuoSet ELISA (R&D Systems); YKL-40 was measured by Human Chitinase 3-like 1 Quantikine ELISA Kit (R&D Systems); Albumin secretion was measured by Human Albumin AssayMax™ ELISA kit (Assay Pro, St. Charles, MO). For all assays, the manufacturer’s protocol was followed.
Cytokine profiles in cell culture medium samples were also analysed by Luminex array for determination of 38 analytes in total, consisting of cytokines, chemokines, and growth factors using the MILLIPLEX MAP Human Cytokine/Chemokine Magnetic Bead Panel - Premixed 38 Plex (Merck Millipore, USA).
Liver microtissues were cultured for 4 days in HEP-FAT medium, before dosing with obeticholic acid or elafibranor. Both compounds were dissolved in DMSO, diluted in cell culture medium (final DMSO concentration ≤1%) and added to microtissues during a full medium change every two days and in addition on the intervening days compounds were spiked into the media to increase drug concentration back to desired concentrations. Cultures were maintained in the presence of the compound, for a total of 10 days in the presence or absence of TGFβ.

[2] = clinical dose; read-out: Plasma Cmax; cited from earlier work
human NASH patients = details: cited from earlier work

CSc1ccc(C(=O)/C=C/c2cc(C)c(OC(C)(C)C(=O)O)c(C)c2)cc1 [Elafibranor]
inflammatory cytokines, including CXCL1, IL1-Rα, IL-6 and MCP-1 ([1]; 10 days of compound treatment): concentration-dependent decrease
CXCL1 fold change in production compared to control ([1]; ELF 1.3 µM QD, D8): 0.8888
CXCL10 fold change in production compared to control ([1]; ELF 1.3 µM QD, D8): 0.9847
FN1 fold change in production compared to control ([1]; ELF 1.3 µM QD, D8): 0.9865
IL-1RA fold change in production compared to control ([1]; ELF 1.3 µM QD, D8): 0.559
IL-4 fold change in production compared to control ([1]; ELF 1.3 µM QD, D8): 1.264
IL-6 fold change in production compared to control ([1]; ELF 1.3 µM QD, D8): 0.3707
IL-8 fold change in production compared to control ([1]; ELF 1.3 µM QD, D8): 1.017
MCP-1 fold change in production compared to control ([1]; ELF 1.3 µM QD, D8): 1.109
MIP-1a fold change in production compared to control ([1]; ELF 1.3 µM QD, D8): 0.8137
MIP-1b fold change in production compared to control ([1]; ELF 1.3 µM QD, D8): 0.885
TIMP-1 fold change in production compared to control ([1]; ELF 1.3 µM QD, D8): 0.8634
VEGF fold change in production compared to control ([1]; ELF 1.3 µM QD, D8): 0.3678
CXCL1 fold change in production compared to control ([1]; ELF 1.3 µM QD, D14): 0.5791
CXCL10 fold change in production compared to control ([1]; ELF 1.3 µM QD, D14): 0.6755
FN1 fold change in production compared to control ([1]; ELF 1.3 µM QD, D14): 1.109
IL-1RA fold change in production compared to control ([1]; ELF 1.3 µM QD, D14): 0.3482
IL-4 fold change in production compared to control ([1]; ELF 1.3 µM QD, D14): 0.8813
IL-6 fold change in production compared to control ([1]; ELF 1.3 µM QD, D14): 0.3647
IL-8 fold change in production compared to control ([1]; ELF 1.3 µM QD, D14): 0.625
MCP-1 fold change in production compared to control ([1]; ELF 1.3 µM QD, D14): 0.9408
MIP-1a fold change in production compared to control ([1]; ELF 1.3 µM QD, D14): 0.8725
MIP-1b fold change in production compared to control ([1]; ELF 1.3 µM QD, D14): 1.297
TIMP-1 fold change in production compared to control ([1]; ELF 1.3 µM QD, D14): 0.9244
VEGF fold change in production compared to control ([1]; ELF 1.3 µM QD, D14): 0.5658
CXCL1 fold change in production compared to control ([1]; ELF 13 µM QD, D8): 0.7659
CXCL10 fold change in production compared to control ([1]; ELF 13 µM QD, D8): 0.8228
FN1 fold change in production compared to control ([1]; ELF 13 µM QD, D8): 0.9502
IL-1RA fold change in production compared to control ([1]; ELF 13 µM QD, D8): 0.4867
IL-4 fold change in production compared to control ([1]; ELF 13 µM QD, D8): 1.05
IL-6 fold change in production compared to control ([1]; ELF 13 µM QD, D8): 0.3808
IL-8 fold change in production compared to control ([1]; ELF 13 µM QD, D8): 0.9446
MCP-1 fold change in production compared to control ([1]; ELF 13 µM QD, D8): 0.8534
MIP-1a fold change in production compared to control ([1]; ELF 13 µM QD, D8): 0.3878
MIP-1b fold change in production compared to control ([1]; ELF 13 µM QD, D8): 0.4913
TIMP-1 fold change in production compared to control ([1]; ELF 13 µM QD, D8): 0.6879
VEGF fold change in production compared to control ([1]; ELF 13 µM QD, D8): 0.494
CXCL1 fold change in production compared to control ([1]; ELF 13 µM QD, D14): 0.5325
CXCL10 fold change in production compared to control ([1]; ELF 13 µM QD, D14): 0.6314
FN1 fold change in production compared to control ([1]; ELF 13 µM QD, D14): 0.9442
IL-1RA fold change in production compared to control ([1]; ELF 13 µM QD, D14): 0.3167
IL-4 fold change in production compared to control ([1]; ELF 13 µM QD, D14): 1.0405
IL-6 fold change in production compared to control ([1]; ELF 13 µM QD, D14): 0.4596
IL-8 fold change in production compared to control ([1]; ELF 13 µM QD, D14): 0.6408
MCP-1 fold change in production compared to control ([1]; ELF 13 µM QD, D14): 0.5
MIP-1a fold change in production compared to control ([1]; ELF 13 µM QD, D14): 0.4932
MIP-1b fold change in production compared to control ([1]; ELF 13 µM QD, D14): 0.6533
TIMP-1 fold change in production compared to control ([1]; ELF 13 µM QD, D14): 0.6384
VEGF fold change in production compared to control ([1]; ELF 13 µM QD, D14): 1.282
CXCL1 fold change in production compared to control ([1]; ELF 65 µM QD, D8): 0.4476
CXCL10 fold change in production compared to control ([1]; ELF 65 µM QD, D8): 0.3212
FN1 fold change in production compared to control ([1]; ELF 65 µM QD, D8): 0.8989
IL-1RA fold change in production compared to control ([1]; ELF 65 µM QD, D8): 0.1707
IL-4 fold change in production compared to control ([1]; ELF 65 µM QD, D8): 0.5412
IL-6 fold change in production compared to control ([1]; ELF 65 µM QD, D8): 0.2914
IL-8 fold change in production compared to control ([1]; ELF 65 µM QD, D8): 0.5667
MCP-1 fold change in production compared to control ([1]; ELF 65 µM QD, D8): 0.402
MIP-1a fold change in production compared to control ([1]; ELF 65 µM QD, D8): 0.2899
MIP-1b fold change in production compared to control ([1]; ELF 65 µM QD, D8): 0.5458
TIMP-1 fold change in production compared to control ([1]; ELF 65 µM QD, D8): 0.784
VEGF fold change in production compared to control ([1]; ELF 65 µM QD, D8): 0.6076
CXCL1 fold change in production compared to control ([1]; ELF 65 µM QD, D14): 0.3166
CXCL10 fold change in production compared to control ([1]; ELF 65 µM QD, D14): 0.3403
FN1 fold change in production compared to control ([1]; ELF 65 µM QD, D14): 0.7375
IL-1RA fold change in production compared to control ([1]; ELF 65 µM QD, D14): 0.07012
IL-4 fold change in production compared to control ([1]; ELF 65 µM QD, D14): 0.3173
IL-6 fold change in production compared to control ([1]; ELF 65 µM QD, D14): 0.09996
IL-8 fold change in production compared to control ([1]; ELF 65 µM QD, D14): 0.4914
MCP-1 fold change in production compared to control ([1]; ELF 65 µM QD, D14): 0.1355
MIP-1a fold change in production compared to control ([1]; ELF 65 µM QD, D14): 0.3265
MIP-1b fold change in production compared to control ([1]; ELF 65 µM QD, D14): 0.1355
TIMP-1 fold change in production compared to control ([1]; ELF 65 µM QD, D14): 0.5288
VEGF fold change in production compared to control ([1]; ELF 65 µM QD, D14): 1.5699
Cmax [2]: 13 µM
NASH resolution, post-hoc analysis of the GOLDEN-505 phase 2b trial (human NASH patients; 120 mg): significant effect on NASH resolution
NASH resolution and fibrosis improvement in phase 3 trial (human NASH patients; 16-month interim analysis): did not reach statistical significance
